Test results published in patent US6048865A, “N^6 -substituted-adenosine-5'-uronamides as adenosine receptor modulator” (priority 1998, dated 2000).
“Also recorded” adds a separate entry of the source. Where two headings read alike, the source gives them in different places.

Assays:
[1] = biological target: T1, rat A3 adenosine receptor (Rattus norvegicus, UniProt P28647);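 note: radioligand binding on membrane homogenates, 1 h incubation at 37 °C in duplicate, gamma counting of filter-bound radioactivity, nonspecific binding defined using 200 µM NECA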
T1 sequence (P28647 1-320): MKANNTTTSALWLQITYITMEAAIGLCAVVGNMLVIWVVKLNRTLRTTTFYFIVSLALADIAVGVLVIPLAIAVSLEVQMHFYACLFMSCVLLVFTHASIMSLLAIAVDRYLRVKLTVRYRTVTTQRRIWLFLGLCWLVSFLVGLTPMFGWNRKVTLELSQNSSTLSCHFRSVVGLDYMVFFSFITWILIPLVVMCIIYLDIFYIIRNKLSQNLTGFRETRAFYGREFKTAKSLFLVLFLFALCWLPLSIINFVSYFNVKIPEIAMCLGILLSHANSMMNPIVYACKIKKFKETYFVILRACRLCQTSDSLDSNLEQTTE
Experimental: (§1) Procedures for preparing rat brain membranes and Chinese hamster ovary (CHO) cell membranes were as reported^30, 38, 44. For binding experients, membrane homogenates were frozen and stored at -20° C. for greater than 2 months. Adenosine deaminase (ADA) was purchased from Boehringer Mannheim (Indianapolis, Ind.).
(§2) Inhibitors were routinely dissolved in DMSO. […] Incubations were carried out in duplicate for 1 h at 37° C., and were terminated by rapid filtration over Whatman GF/B filters using a Brandell cell harvester (Brandell, Gaithersburg, Md.). Tubes were washed three times with 3 mL of buffer. Radioactivity was determined in a Beckman gamma 5500B γ-counter.
(§3) Nonspecific binding was determined in the presence of 200 μM NECA. […] Additional deaminase was not added during incubation with the radioligand.

[2] = biological target: T2, rat brain A1 adenosine receptor (Rattus norvegicus, UniProt P25099)
T2 sequence (P25099 1-326): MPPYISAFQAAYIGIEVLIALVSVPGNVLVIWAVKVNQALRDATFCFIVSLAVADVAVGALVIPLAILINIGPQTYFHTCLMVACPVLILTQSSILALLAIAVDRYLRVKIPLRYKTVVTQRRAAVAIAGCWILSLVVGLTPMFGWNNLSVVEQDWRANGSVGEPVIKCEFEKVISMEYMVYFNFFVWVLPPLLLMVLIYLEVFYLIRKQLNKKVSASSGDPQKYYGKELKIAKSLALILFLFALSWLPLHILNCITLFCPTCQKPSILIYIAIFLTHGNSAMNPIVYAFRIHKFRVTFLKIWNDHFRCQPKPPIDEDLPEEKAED
Experimental: (§4) Procedures for preparing rat brain membranes and Chinese hamster ovary (CHO) cell membranes were as reported^30, 38, 44. For binding experients, membrane homogenates were frozen and stored at -20° C. for greater than 2 months.
as §3

[3] = biological target: T3, rat brain A2A adenosine receptor (Rattus norvegicus, UniProt P30543); experiment: Displacement of specific [3H]CGS 21680 binding in rat striatal membranes
T3 construct: A2A receptors for rat striatal membranes; from tissue; host or cells: rat striatal membranes
T3 sequence (P30543 whole entry): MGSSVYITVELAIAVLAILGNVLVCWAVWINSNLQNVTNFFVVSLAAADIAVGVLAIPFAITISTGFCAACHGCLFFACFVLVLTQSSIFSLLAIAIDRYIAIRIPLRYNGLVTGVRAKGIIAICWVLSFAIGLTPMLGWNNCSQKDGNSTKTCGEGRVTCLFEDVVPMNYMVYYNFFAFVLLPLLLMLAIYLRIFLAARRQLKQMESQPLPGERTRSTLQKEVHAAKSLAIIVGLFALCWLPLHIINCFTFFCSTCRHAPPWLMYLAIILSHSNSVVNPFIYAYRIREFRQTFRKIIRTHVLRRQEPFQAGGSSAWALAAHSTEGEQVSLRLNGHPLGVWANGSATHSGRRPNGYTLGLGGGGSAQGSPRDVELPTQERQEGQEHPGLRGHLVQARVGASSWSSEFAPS
Experimental: For binding experients, membrane homogenates were frozen and stored at -20° C. for greater than 2 months. Adenosine deaminase (ADA) was purchased from Boehringer Mannheim (Indianapolis, Ind.).
as §3

[4] = biological target: T1, rat A3 adenosine receptor; details: for A1/A3: ratio of Ki (A1) to Ki (A3); for A1/A3 / A2A/A3: rat; for A2A/A3: ratio of Ki (A2A) to Ki (A3); for affinity and selectivity at A3 adenosine receptors: vs. A1 and A2 receptors
Experimental: as §1, §2, §3

[5] = biological target: T2, rat brain A1 adenosine receptor; experiment: biochemical
Experimental: as §4, §3

[6] = biological target: T4, rat A3 receptor (Rattus norvegicus, UniProt P28647); experiment: Binding of [35S]GTP-γ-S to rat RBL-2H3 mast cell membranes; format: biochemical; details: for effect on binding of [35S]GTP-γ-S: FIG. 1, rat RBL-2H3 mast cell membranes
T4 sequence (P28647 1-320): T1 sequence (P28647 1-320)
Experimental: The binding for [^35 S]GTP-y-S (Ameersham, Chicago Ill., specific activity 1275 Ci/mmol) was carried out using rat RBL-2H3 mast cell membranes by the general method of Lorenzen et al.^47 Membranes were suspended in a buffer containing 50 mM Tris, 3 units/mL adenosine deaminase, 100 mM NaCl, and 10 mM MgCl2 (pH 7.4) and a protein concentration of 1 to 10 μg per tube. The membrane suspension was preincubated with […], R-PIA and/or riboflavin in a final volume of 125 μL buffer at 30° C. for 60 min and then transferred to ice for 20 min. [^35 S]GTP-γy-S was added to a final concentration of 0.1 nM in a total volume of 500 μL and the mixture was incubated for 30 min at 30° C. Non-specific binding was determined in the presence of 10 μM GTP-γ-S (Sigma, St. Louis Mo.). Incubation of the reaction mixture was terminated by filtration over a GF/B glass filter using a Brandell cell harvester and washed with the same buffer.
The assay involved the agonist-induced inhibition of binding of guanine nucleotide to rat RBL-2H3 mast cell membranes, which contain a high density of A3 receptors.

[7] = tested on: A3 receptor; details: background, cited from earlier work
[8] = biological target: T5, human A3 adenosine receptor (Homo sapiens, UniProt P0DMS8); experiment: Binding of [125I]-AB-MECA to HEK-293 cells stably expressing the human A3 receptor; details: read-out: affinity at human A3 adenosine receptors
T5 construct: expressed in transfected cells; host or cells: HEK-293 cells
T5 sequence (P0DMS8 1-318): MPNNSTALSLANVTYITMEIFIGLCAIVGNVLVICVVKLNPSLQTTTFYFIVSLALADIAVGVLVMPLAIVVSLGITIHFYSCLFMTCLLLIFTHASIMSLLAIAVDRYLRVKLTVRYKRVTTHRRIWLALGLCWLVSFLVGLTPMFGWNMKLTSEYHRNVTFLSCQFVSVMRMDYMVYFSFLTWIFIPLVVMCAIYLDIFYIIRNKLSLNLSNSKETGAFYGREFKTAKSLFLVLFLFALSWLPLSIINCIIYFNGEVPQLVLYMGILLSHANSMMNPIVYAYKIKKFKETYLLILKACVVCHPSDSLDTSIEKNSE
Description: Inhibitors were routinely dissolved in DMSO.

[9] = biological target: T2, rat brain A1 adenosine receptor; experiment: Displacement of specific [3H]R-PIA binding in rat brain (cortical) membranes; details: read-out: Ki (A1)
Experimental: as §4, §3

[10] = rat striatal membranes, [3H]CGS 21680, Ki ± SEM, n = 3-6

| Compound | Ki [1] | Ki [2] | Ki [3, 10] | A1/A3 [4] | A2A/A3 [4] | other results |
| --- | --- | --- | --- | --- | --- | --- |
| CCNC(=O)[C@H]1O[C@@H](n2cnc3c(N(C(=O)Nc4ccc(Cl)cn4)C(=O)Nc4ccc(Cl)cn4)ncnc32)[C@H](O)[C@@H]1O [Compound 3o, N^6-bis-(5-chloro-pyridin-2-yl-carbamoyl)-adenosine-5'-N-ethyluronamide] | 5700 ± 100 nM | 761 ± 187 nM | 799 ± 191 nM | 0.13 | 0.14 |  |
| CCNC(=O)[C@H]1O[C@@H](n2cnc3c(NC(=O)Nc4nncs4)ncnc32)[C@H](O)[C@@H]1O [Compound 3l, N^6-(1,3,4-thiadiazol-2-yl-carbamoyl)-adenosine-5'-N-ethyluronamide] | 5550 ± 2800 nM | 208 ± 42 nM | 917 ± 254 nM | 0.037 | 0.16 |  |
| CNC(=O)[C@H]1O[C@@H](n2cnc3c(NCc4ccc(N)c(I)c4)ncnc32)[C@H](O)[C@@H]1O [I-AB-MECA, N^6-(4-amino-3-iodobenzyl)adenosine-5'-N-methyluronamide, reference compound] |  |  |  |  |  | effect on binding of [35S]GTP-γ-S [6]: increased binding of [^35 S]GTP-γ-S in a dose dependent manner |
| CNC(=O)[C@H]1O[C@@H](n2cnc3c(NCc4cccc(I)c4)nc(Cl)nc32)[C@H](O)[C@@H]1O [Cl-IB-MECA, 2-chloro-N^6-(3-iodobenzyl)adenosine-5'-N-methyluronamide, reference compound] |  |  |  |  |  | effect on binding of [35S]GTP-γ-S [6]: increased binding of [^35 S]GTP-γ-S in a dose dependent manner |
| CNC(=O)[C@H]1O[C@@H](n2cnc3c(NCc4cccc(I)c4)ncnc32)[C@H](O)[C@@H]1O [IB-MECA, N^6-(3-iodobenzyl)adenosine-5'-N-methyluronamide] |  |  |  |  |  | behavioral effect [7]: induces behavioral depression; protection against cerebral ischemia ([7]; chronic administration): protects against cerebral ischemia |
| CCNC(=O)[C@H]1O[C@@H](n2cnc3c(N(C(=O)Nc4ccc([N+](=O)[O-])cc4)C(=O)Nc4ccc([N+](=O)[O-])cc4)ncnc32)[C@H](O)[C@@H]1O [Compound 3n, N^6-bis-(4-nitrophenylcarbamoyl)-adenosine-5'-N-ethyluronamide] |  |  | 2530 ± 200 nM |  |  | Ki [9]: 89.1 ± 8.8 nM |
| CCNC(=O)[C@H]1O[C@@H](n2cnc3c(NNC(=O)c4ccc(Cl)cc4)ncnc32)[C@H](O)[C@@H]1O [Compound 3d, N^6-(4-chlorophenyl-carbonylamino)-adenosine-5'-N-ethyluronamide] |  |  |  | 1.55 | 2.59 | Ki [9]: 1170 ± 220 nM; Ki [3]: 1960 ± 300 nM; Ki ([4]; read-out: Ki (A3)): 754 ± 132 nM |
| CCNC(=O)[C@H]1O[C@@H](n2cnc3c(NC(=O)c4ccc(-c5ccccc5)cc4)ncnc32)[C@H](O)[C@@H]1O [Compound 3a] | 979 ± 22 nM | 5.92 ± 1.04 nM | 3580 ± 850 nM | 0.006 | 3.65 |  |

Continued, in another order:

| Ki [1] | Ki [2] | Ki [3, 10] | A1/A3 [4] | A2A/A3 [4] | Compound | other results |
| --- | --- | --- | --- | --- | --- | --- |
| 319 ± 134 nM | 537 ± 33 nM | 2970 ± 930 nM | 1.68 | 9.3 | CCNC(=O)[C@H]1O[C@@H](n2cnc3c(NC(=O)N[C@@H](C)c4ccccc4)ncnc32)[C@H](O)[C@@H]1O [Compound 3j, N^6-((S)-α-phenylethylcarbamoyl)-adenosine-5'-N-ethyluronamide] | affinity and selectivity at A3 adenosine receptors [4]: relatively high affinity and selectivity at A3 adenosine receptors |
| 16.3 ± 3.7 nM | 433 ± 171 nM | 279 ± 171 nM | 26.5 | 17.1 | CCNC(=O)[C@H]1O[C@@H](n2cnc3c(NC(=O)N[C@H](C)c4ccccc4)ncnc32)[C@H](O)[C@@H]1O [Compound 3i, N^6-((R)-α-phenylethylcarbamoyl)-adenosine-5'-N-ethyluronamide] |  |
| 107 ± 34 nM |  |  | 2.3 | 2.4 | CCCOc1ccc(NC(=O)Nc2ncnc3c2ncn3[C@@H]2O[C@H](C(=O)NCC)[C@@H](O)[C@H]2O)cc1 [Compound 3m, N^6-(4-n-propoxy-phenylcarbamoyl)-adenosine-5'-N-ethyluronamide] | Ki [5]: 257 ± 43 nM; Ki [4]: 9.7 to 107 nM; affinity and selectivity at A3 adenosine receptors [4]: relatively high affinity and selectivity at A3 adenosine receptors |
| 824 ± 126 nM | 252 ± 52 nM | 670 ± 211 nM | 0.30 | 0.81 | CCNC(=O)[C@H]1O[C@@H](n2cnc3c(NC(=O)c4ccccc4)ncnc32)[C@H](O)[C@@H]1O [Compound 3e] |  |
| 837 ± 142 nM | 86.4 ± 14.2 nM | 237 ± 46 nM | 0.10 | 0.28 | CCNC(=O)[C@H]1O[C@@H](n2cnc3c(NC(=O)c4ccc(OC)cc4)ncnc32)[C@H](O)[C@@H]1O [Compound 3c] |  |
| 38.3 ± 6.4 nM | 171 ± 15 nM | 1790 ± 230 nM | 4.46 | 46.8 | CCNC(=O)[C@H]1O[C@@H](n2cnc3c(NC(=O)NCc4ccccc4)ncnc32)[C@H](O)[C@@H]1O [Compound 3f, N^6-(benzylcarbamoylamino)-adenosine-5'-N-ethyluronamide] |  |
| 20.9 ± 7.51 nM | 72.7 ± 11.8 nM | 1050 ± 270 nM | 3.47 | 50.2 | CCNC(=O)[C@H]1O[C@@H](n2cnc3c(NC(=O)Nc4ccc(C(C)=O)cc4)ncnc32)[C@H](O)[C@@H]1O [Compound 3h, N^6-(4-acetyl-phenylcarbamoyl)-adenosine-5'-N-ethyluronamide] | Ki [4]: 9.7 to 107 nM; affinity and selectivity at A3 adenosine receptors [4]: relatively high affinity and selectivity at A3 adenosine receptors |
| 532 ± 240 nM | 146 ± 39 nM | 884 ± 232 nM | 0.27 | 1.66 | CCNC(=O)[C@H]1O[C@@H](n2cnc3c(NC(=O)Nc4cc(C)on4)ncnc32)[C@H](O)[C@@H]1O [Compound 3k, N^6-(5-methyl-isoxazol-3-yl-carbamoyl)-adenosine-5'-N-ethyluronamide] |  |
| 9.73 ± 0.75 nM | 453 ± 141 nM | 1180 ± 360 nM | 46.5 | 121.2 | CCNC(=O)[C@H]1O[C@@H](n2cnc3c(NC(=O)Nc4ccc(S(N)(=O)=O)cc4)ncnc32)[C@H](O)[C@@H]1O [Compound 3g, N^6-(4-sulfonamido-phenylcarbamoyl)-adenosine-5'-N-ethyluronamide] | Ki [8]: 56.1 ± 9.1 nM; effect on binding of [35S]GTP-γ-S [6]: about as effective as the potent A3 agonists I-AB-MECA and Cl-IB-MECA; also recorded: greater potency than NECA; also recorded: increased binding of [^35 S]GTP-γ-S in a dose dependent manner; agonism at rat A3 receptor ([6]; functional assay, rat RBL-2H3 mast cell membranes): full agonist; Ki [4]: 9.7 to 107 nM; Ki ([4]; read-out: affinity at A3 receptors, rat A3, running text): 9.7 nM |
| 167 ± 7 nM | 16 ± 3.3 nM |  | 0.095 | 0.16 | CCNC(=O)[C@H]1O[C@@H](n2cnc3c(NC(=O)Cc4ccc(Cl)cc4Cl)ncnc32)[C@H](O)[C@@H]1O [Compound 3b, N^6-(2,4-dichlorobenzyl-carbonylamino)-adenosine-5'-N-ethyluronamide] | Ki [3]: 26.6 ± 8.8 nM |
